Source: patent US20220324815A1, “2-PHENOXY-PYRIMIDINE DERIVATIVES AS HERBICIDAL COMPOUNDS” (SYNGENTA CROP PROTECTION AG, priority 2019, published 2022)

Tests used:
Assay type in all cases: in vivo
Settings in all cases: 250 g/ha unless otherwise stated, evaluated after 13 days, five-point scale
[1] = test system: Echinochloa crus-galli (ECHCG); test: Test 1 glasshouse herbicide test, post-emergence application (Table B1)
Description: (§1) Seeds of a variety of test species are sown in standard soil in pots (Lolium perenne (LOLPE), Solanum nigrum (SOLNI), Amaranthus retoflexus (AMARE), Setaria faberi (SETFA), Echinochloa crus-galli (ECHCG) and Ipomoea hederacea (IPOHE)). After cultivation for one day (pre-emergence) or after 8 days cultivation (post-emergence) under controlled conditions in a glasshouse (at 24/16° C., day/night; 14 hours light; 65% humidity), the plants are sprayed with an aqueous spray solution derived from the formulation of the technical active ingredient in acetone/water (50:50) solution containing 0.5% Tween 20 (polyoxyethelyene sorbitan monolaurate, CAS RN 9005-64-5). Compounds are applied at 250 g/ha unless otherwise stated. The test plants are then grown in a glasshouse under controlled conditions in a glasshouse (at 24/16° C., day/night; 14 hours light; 65% humidity) and watered twice daily. After 13 days for pre and post-emergence, the test is evaluated for the percentage damage caused to the plant. The biological activities (% phytotoxicity) are shown in Tables B1 and B2 below using a five-point scale (5=81 to 100%; 4=61 to 80%; 3=41 to 60%; 2=21 to 40%; 1=0 to 20%).

Setaria faberi (SETFA) [2] = test: as above
Description: as §1

[3] = test system: Amaranthus retoflexus (AMARE); test: as above
Description: as §1

[4] = test system: Ipomoea hederacea (IPOHE); test: as above
Description: as §1

[5] = test system: Echinochloa crus-galli (ECHCG); test: Test 1 glasshouse herbicide test, pre-emergence application (Table B2)
Description: as §1

Setaria faberi (SETFA) [6] = test: as above
Description: as §1

[7] = test system: Amaranthus retoflexus (AMARE); test: as above
Description: as §1

[8] = test system: Ipomoea hederacea (IPOHE); test: as above
Description: as §1

Row | Structure (SMILES) | % phytotoxicity ECHCG, post-emergence application [1] | % phytotoxicity SETFA, post-emergence application (Setaria faberi (SETFA) [2]) | % phytotoxicity AMARE, post-emergence application [3] | % phytotoxicity IPOHE, post-emergence application [4] | % phytotoxicity ECHCG, pre-emergence application [5] | % phytotoxicity SETFA, pre-emergence application (Setaria faberi (SETFA) [6]) | % phytotoxicity AMARE, pre-emergence application [7] | % phytotoxicity IPOHE, pre-emergence application [8]
1 | FC(F)=C(F)CCSc1ccccc1Oc1ncc(Cl)cn1 [Compound A68] | 5 (5=81 to 100%) | 4 (4=61 to 80%) | 5 (5=81 to 100%) | 5 (5=81 to 100%) | 5 (5=81 to 100%) | 5 (5=81 to 100%) | 5 (5=81 to 100%) | 4 (4=61 to 80%)
2 | CC(C)CCSc1ccccc1Oc1ncc(Cl)cn1 [Compound A70] | 5 (5=81 to 100%) | 4 (4=61 to 80%) | 2 (2=21 to 40%) | 4 (4=61 to 80%) | 5 (5=81 to 100%) | 5 (5=81 to 100%) | 2 (2=21 to 40%) | 1 (1=0 to 20%)
3 | C=CCCSc1ccccc1Oc1ncc(Cl)cn1 [Compound A71] | 4 (4=61 to 80%) | 3 (3=41 to 60%) | 5 (5=81 to 100%) | 4 (4=61 to 80%) | 5 (5=81 to 100%) | 5 (5=81 to 100%) | 5 (5=81 to 100%) | 1 (1=0 to 20%)
4 | CC(C)CSc1ccccc1Oc1ncc(Cl)cn1 [Compound A72] | 3 (3=41 to 60%) | 2 (2=21 to 40%) | 3 (3=41 to 60%) | 2 (2=21 to 40%) | 4 (4=61 to 80%) | 4 (4=61 to 80%) | 4 (4=61 to 80%) | 1 (1=0 to 20%)
5 | O=S(=O)(CCC(F)=C(F)F)c1ccccc1Oc1ncc(Cl)cn1 [Compound A73] | 3 (3=41 to 60%) | 3 (3=41 to 60%) | 4 (4=61 to 80%) | 1 (1=0 to 20%) | 5 (5=81 to 100%) | 4 (4=61 to 80%) | 5 (5=81 to 100%) | 1 (1=0 to 20%)
6 | CC(C)CCS(=O)(=O)c1ccccc1Oc1ncc(Cl)cn1 [Compound A75] | 3 (3=41 to 60%) | 2 (2=21 to 40%) | 2 (2=21 to 40%) | 2 (2=21 to 40%) | 4 (4=61 to 80%) | 4 (4=61 to 80%) | 5 (5=81 to 100%) | 1 (1=0 to 20%)
7 | CC(C)CS(=O)(=O)c1ccccc1Oc1ncc(Cl)cn1 [Compound A76] | 2 (2=21 to 40%) | 1 (1=0 to 20%) | 1 (1=0 to 20%) | 2 (2=21 to 40%) | 3 (3=41 to 60%) | 4 (4=61 to 80%) | 5 (5=81 to 100%) | 2 (2=21 to 40%)
8 | CCCCCCS(=O)(=O)c1ccccc1Oc1ncc(Cl)cn1 [Compound A77] | 1 (1=0 to 20%) | 1 (1=0 to 20%) | 2 (2=21 to 40%) | 1 (1=0 to 20%) | 3 (3=41 to 60%) | 1 (1=0 to 20%) | 4 (4=61 to 80%) | 1 (1=0 to 20%)
9 | O=S(=O)(CCCF)c1ccccc1Oc1ncc(Cl)cn1 [Compound A82] | 1 (1=0 to 20%) | 1 (1=0 to 20%) | 3 (3=41 to 60%) | 3 (3=41 to 60%) | 3 (3=41 to 60%) | 3 (3=41 to 60%) | 5 (5=81 to 100%) | 1 (1=0 to 20%)
10 | CCC(CC)CS(=O)(=O)c1ccccc1Oc1ncc(Cl)cn1 [Compound A87] | 1 (1=0 to 20%) | 1 (1=0 to 20%) | 1 (1=0 to 20%) | 1 (1=0 to 20%) | 1 (1=0 to 20%) | 1 (1=0 to 20%) | 1 (1=0 to 20%) | 1 (1=0 to 20%)
11 | CCC(C)S(=O)(=O)c1ccccc1Oc1ncc(Cl)cn1 (stereo not shown) [Compound A88] | 1 (1=0 to 20%) | 1 (1=0 to 20%) | 2 (2=21 to 40%) | 1 (1=0 to 20%) | 1 (1=0 to 20%) | 5 (5=81 to 100%) | 5 (5=81 to 100%) | 2 (2=21 to 40%)
12 | O=S(=O)(Cc1cccc(Cl)c1)c1ccccc1Oc1ncc(Cl)cn1 [Compound A89] | 1 (1=0 to 20%) | 1 (1=0 to 20%) | 3 (3=41 to 60%) | 1 (1=0 to 20%) | 1 (1=0 to 20%) | 1 (1=0 to 20%) | 1 (1=0 to 20%) | 1 (1=0 to 20%)
13 | N#Cc1cccc(Oc2ncc(Cl)cn2)c1S(=O)(=O)CCCCC(F)(F)F [Compound A91] | 5 (5=81 to 100%) | 4 (4=61 to 80%) | 5 (5=81 to 100%) | 4 (4=61 to 80%) | 5 (5=81 to 100%) | 5 (5=81 to 100%) | 5 (5=81 to 100%) | 5 (5=81 to 100%)
14 | N#Cc1cccc(Oc2ncc(Cl)cn2)c1S(=O)(=O)CCCCCC(F)(F)F [Compound A92] | 3 (3=41 to 60%) | 2 (2=21 to 40%) | 5 (5=81 to 100%) | 2 (2=21 to 40%) | 4 (4=61 to 80%) | 4 (4=61 to 80%) | 5 (5=81 to 100%) | 1 (1=0 to 20%)
15 | FC(F)CCSc1c(Cl)cccc1Oc1ncc(Cl)cn1 [Compound A94] | 5 (5=81 to 100%) | 5 (5=81 to 100%) | 5 (5=81 to 100%) | 3 (3=41 to 60%) | 5 (5=81 to 100%) | 5 (5=81 to 100%) | 5 (5=81 to 100%) | 3 (3=41 to 60%)
16 | [O-][S+](CCC(F)F)c1c(Cl)cccc1Oc1ncc(Cl)cn1 (stereo not shown) [Compound A95] | 2 (2=21 to 40%) | 1 (1=0 to 20%) | 4 (4=61 to 80%) | 4 (4=61 to 80%) | 5 (5=81 to 100%) | 5 (5=81 to 100%) | 5 (5=81 to 100%) | 5 (5=81 to 100%)
17 | O=S(=O)(CCC(F)F)c1c(Cl)cccc1Oc1ncc(Cl)cn1 [Compound A96] | 5 (5=81 to 100%) | 5 (5=81 to 100%) | 5 (5=81 to 100%) | 5 (5=81 to 100%) | 5 (5=81 to 100%) | 5 (5=81 to 100%) | 5 (5=81 to 100%) | 5 (5=81 to 100%)
